Our source for the IC50 values is patent US10807985B2 (Blueprint Medicines Corporation, priority 2013, dated 2020).

One assay addresses D816V KIT (Homo sapiens (Human), UniProt P10721, D816V). In words: KIT D816V assay at Km (Caliper electrophoretic mobility shift). The note with it: biochemical, 15 uM ATP (Km), 90 minutes at 25 C; read-out: INH KIT D816V.
For assay [1], the target named is KIT D816V kinase activity (KIT autophosphorylation at tyrosine 719) in HMC1.2 cells (Homo sapiens (Human), UniProt P10721, D816V/V560G). The experiment in a line: HMC1.2 autophosphorylation assay (phospho-Y719 c-KIT AlphaLISA). To be noted: HMC1.2 mast cell leukemia cell line (KIT V560G, D816V), 90 minutes compound; read-out: INH-KIT-PHOS-HMC1.2. Type of assay: cell-based. In general terms: Alpha assays give light when donor and acceptor beads are brought close together.

Molecules are shown by their SMILES. Where only a bound is given, the exact number is not on record here.

Chain of KIT D816V kinase activity (KIT autophosphorylation at tyrosine 719) in HMC1.2 cells (P10721 26-976 V560G/D816V): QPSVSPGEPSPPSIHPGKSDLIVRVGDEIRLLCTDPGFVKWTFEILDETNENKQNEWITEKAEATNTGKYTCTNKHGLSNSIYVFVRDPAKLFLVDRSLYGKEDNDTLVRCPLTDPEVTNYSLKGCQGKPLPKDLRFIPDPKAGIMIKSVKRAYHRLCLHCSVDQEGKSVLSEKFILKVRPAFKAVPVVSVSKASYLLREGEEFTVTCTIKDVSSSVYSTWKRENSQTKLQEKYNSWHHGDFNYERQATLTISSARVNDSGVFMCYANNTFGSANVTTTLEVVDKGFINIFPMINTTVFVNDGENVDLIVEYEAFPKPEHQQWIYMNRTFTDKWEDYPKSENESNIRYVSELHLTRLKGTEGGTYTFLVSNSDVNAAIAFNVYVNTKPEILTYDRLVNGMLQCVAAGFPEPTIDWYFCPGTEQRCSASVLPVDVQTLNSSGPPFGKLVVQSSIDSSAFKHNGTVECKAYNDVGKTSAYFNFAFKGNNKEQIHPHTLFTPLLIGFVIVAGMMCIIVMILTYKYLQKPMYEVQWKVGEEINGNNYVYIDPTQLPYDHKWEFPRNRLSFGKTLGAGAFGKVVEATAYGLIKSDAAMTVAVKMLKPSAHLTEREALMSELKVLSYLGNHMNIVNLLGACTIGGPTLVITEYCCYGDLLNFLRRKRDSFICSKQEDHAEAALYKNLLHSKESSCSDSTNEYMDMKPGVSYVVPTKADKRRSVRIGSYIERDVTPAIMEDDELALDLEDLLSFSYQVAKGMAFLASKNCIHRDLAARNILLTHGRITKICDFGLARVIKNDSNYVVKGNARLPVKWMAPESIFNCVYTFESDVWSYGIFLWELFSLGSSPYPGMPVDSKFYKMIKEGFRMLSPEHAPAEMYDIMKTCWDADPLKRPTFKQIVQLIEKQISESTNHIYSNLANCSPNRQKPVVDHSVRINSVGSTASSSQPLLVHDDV
Chain of D816V KIT (P10721 26-976 D816V): as the sequence (P10721 26-976 V560G/D816V) above, with G535V counted along it

Take `C[C@H](c1ccc(F)cc1)c1cnc(N2CCN(c3ncnn4cc(-c5cnn(C)c5)cc34)C[C@H]2CO)nc1` [Compound 74]: the IC50 lay in the range of 1.01 to 10 nM on D816V KIT and 50 to 100 nM in assay [1].

As for `CN(C)[C@H](c1ccccc1)c1cnc(N2CCN(c3ncnn4cc(-c5cnn(C)c5)cc34)CC2)nc1` [Compound 37], the IC50 on D816V KIT was 10 to 100 nM; in assay [1] it was 1000 to 10000 nM.

Turning to `C[C@H](O)Cn1cc(-c2cc3c(N4CCN(c5ncc(Sc6ccccc6F)cn5)CC4)ncnn3c2)cn1` [Compound 105], the values for the IC50 (at D816V KIT; in assay [1]) were 1.01 to 10 nM and < 50 nM, respectively.

`Cc1ccc(-c2cc3c(N4CCN(c5ncc([C@@](C)(O)c6ccc(F)cc6)cn5)CC4)ncnn3c2)s1` [Compound 82]: the IC50 lay within 10 to 100 nM on D816V KIT and 100 to 1000 nM in assay [1].

Regarding `CC(C)(C)OC(=O)N1CC=C(c2cc3c(N4CCN(c5ncc([C@@](C)(O)c6ccc(F)cc6)cn5)CC4)ncnn3c2)CC1` [Compound 124], the IC50 is 1.01 to 10 nM on D816V KIT and < 50 nM in assay [1].

Regarding `C[C@](O)(c1ccc(F)cc1)c1cnc(N2CCN(c3ncnn4cc(-c5cccc(F)c5)cc34)CC2)nc1` [Compound 66], the IC50 on D816V KIT fell in the range of 1.01 to 10 nM; in assay [1], 100 to 1000 nM.

Take `Cn1cc(-c2cc3c(N4CCN(c5ncc([C@@](C)(O)c6ccc(F)cc6Cl)cn5)CC4)ncnn3c2)cn1` [Compound 110]: the results for the IC50 (at D816V KIT; in assay [1]) were 1.01 to 10 nM and < 50 nM, respectively.

On to `Cc1c(-c2cc3c(N4CCN(c5ncc(Cc6ccccc6)cn5)[C@H](C)C4)ncnn3c2)cnn1C` [Compound 19], for which the IC50 at D816V KIT was in the range of 1.01 to 10 nM; in assay [1], 100 to 1000 nM.

Take `CO[C@@](C)(c1ccc(F)cc1)c1cnc(N2CCN(c3ncnn4cc(-c5cnn(C)c5)cc34)CC2)nc1` [Compound 67]: the IC50 at D816V KIT lay within 10 to 100 nM; in assay [1] it was 100 to 1000 nM.

Regarding `Cn1cc(-c2cn3ncnc(N4CCN(c5ncc([C@@](C)(O)c6ccc(F)cc6)cn5)CC4)c3c2Cl)cn1` [Compound 108], the IC50 is > 100 nM at D816V KIT and 1000 to 10000 nM in assay [1].

In the case of `Cn1cc(-c2cc3c(N4CCN(c5ncc(C(C)(C)c6c(F)cc(F)cc6F)cn5)CC4)ncnn3c2)cn1` [Compound 106], the IC50 was 1.01 to 10 nM on D816V KIT and < 50 nM in assay [1].

Take `Cn1cc(-c2cc3c(N4CCN(c5ncc([C@](C)(O)c6ccccc6F)cn5)CC4)ncnn3c2)cn1` [Compound 48]: the IC50 is 1.01 to 10 nM on D816V KIT and < 50 nM in assay [1].

As for `Cn1cc(-c2cc3c(N4CCN(c5ncc([C@](O)(c6ccc(F)cc6)C(F)F)cn5)CC4)ncnn3c2)cn1` [Compound 118], the IC50 at D816V KIT lay within 1.01 to 10 nM; in assay [1] it was 100 to 1000 nM.

For `Cn1cc(-c2cc3c(N4CCN(c5ncc([C@H](N)c6ccccc6)cn5)CC4)ncnn3c2)cn1` [Compound 13, (R)-(2-(4-(6-(1-methyl-1H-pyrazol-4-yl)pyrrolo[2,1-f][1,2,4]triazin-4-yl)piperazin-1-yl)pyrimidin-5-yl)(phenyl)methanamine], the IC50 on D816V KIT was in the range of 1.01 to 10 nM; in assay [1], 100 to 1000 nM.

On to `C[C@@](O)(c1ccc(F)cc1)c1cnc(N2CCN(c3ncnn4cc(-c5ccc(F)cc5)cc34)CC2)nc1` [Compound 64], for which the values for the IC50 (at D816V KIT; in assay [1]) were 10 to 100 nM and 100 to 1000 nM, respectively.

In the case of `CC[C@](O)(c1ccc(F)cc1)c1cnc(N2CCN(c3ncnn4cc(-c5cnn(C)c5)cc34)CC2)nc1` [Compound 69], the results for the IC50 (at D816V KIT; in assay [1]) were 1.01 to 10 nM and 100 to 1000 nM, respectively.

In the case of `Cn1cc(-c2cc3c(N4CCN(c5ncc([C@@](C)(O)c6ccc(F)cn6)cn5)CC4)ncnn3c2)cn1` [Compound 54], the IC50 was 1.01 to 10 nM on D816V KIT and 100 to 1000 nM in assay [1].

Take `Cn1cc(-c2cc3c(N4CCN(c5ncc([C@](C)(O)c6ccc(F)cn6)cn5)CC4)ncnn3c2)cn1` [Compound 53]: the IC50 on D816V KIT fell in the range of 10 to 100 nM; in assay [1] it was 1000 to 10000 nM.

As for `COc1ccc(-c2cc3c(N4CCN(c5ccccc5)CC4)ncnn3c2)cc1OC` [Compound 5], the IC50 at D816V KIT lay in the range of 10 to 100 nM; in assay [1], 1000 to 10000 nM.

Regarding `Cn1cc(-c2cc3c(N4CCN(c5ncc([C@](O)(c6ccc(F)cc6)C6CC6)cn5)CC4)ncnn3c2)cn1` [Compound 103], the IC50 at D816V KIT is 1.01 to 10 nM; in assay [1], 100 to 1000 nM.

In the case of `Cn1cc(-c2cc3c(N4CCN(c5ncc([C@@](C)(O)c6ccccc6F)cn5)CC4)ncnn3c2)cn1` [Compound 47], the IC50 is < 1 nM on D816V KIT and < 50 nM in assay [1].

As to `CN(C)[C@@H](c1ccccc1)c1cnc(N2CCN(c3ncnn4cc(-c5cnn(C)c5)cc34)CC2)nc1` [Compound 36, (S)—N,N-dimethyl-1-(2-(4-(6-(1-methyl-1H-pyrazol-4-yl)pyrrolo[2,1-f][1,2,4]triazin-4-yl)piperazin-1-yl)pyrimidin-5-yl)-1-phenylmethanamine], the IC50 on D816V KIT fell in the range of 1.01 to 10 nM; in assay [1], 100 to 1000 nM.

Regarding `Cn1cc(-c2cc3c(N4CCN(c5ncc([C@](C)(O)c6ccccc6)cn5)CC4)ncnn3c2)cn1` [Compound 24], the values for the IC50 (on D816V KIT; in assay [1]) were 1.01 to 10 nM and 100 to 1000 nM, respectively.

As to `C=C(c1ccc(F)cc1)c1cnc(N2CCN(c3ncnn4cc(-c5cnn(C)c5)cc34)CC2)nc1` [Compound 23], the IC50 on D816V KIT lay within 10 to 100 nM; in assay [1], 100 to 1000 nM.

Take `Cn1cc(-c2cc3c(N4CCN(c5ncc(Sc6ccccc6F)c(N)n5)CC4)ncnn3c2)cn1` [Compound 56]: the values for the IC50 (on D816V KIT; in assay [1]) were < 1 nM and < 50 nM, respectively.

Take `Cc1ncc(-c2cc3c(N4CCN(c5ncc([C@@](C)(O)c6ccc(F)cc6)cn5)CC4)ncnn3c2)s1` [Compound 88]: the IC50 on D816V KIT is < 1 nM; in assay [1], < 50 nM.

`CN(C)C(=O)c1ccc(-c2cc3c(N4CCN(c5ccccc5)CC4)ncnn3c2)cc1` [Compound 6]: the IC50 on D816V KIT is > 100 nM; in assay [1] it was > 10000 nM.

In the case of `Cn1cc(-c2cc3c(N4CCN(c5ncc([C@](N)(c6ccc(F)cc6)C(F)F)cn5)CC4)ncnn3c2)cn1` [Compound 112], the IC50 on D816V KIT was 1.01 to 10 nM; in assay [1], 100 to 1000 nM.

`Cc1cc(-c2cc3c(N4CCN(c5ncc([C@@](C)(O)c6ccc(F)cc6)cn5)CC4)ncnn3c2)no1` (single isomer, unassigned) [Compound 52]: the IC50 was in the range of 1.01 to 10 nM at D816V KIT and 100 to 1000 nM in assay [1].

In the case of `Cn1cc(-c2cn3ncnc(N4CCN(c5ncc([C@](C)(O)c6ccc(F)cc6)cn5)CC4)c3c2F)cn1` [Compound 89], the IC50 was > 100 nM at D816V KIT and 1000 to 10000 nM in assay [1].

`N#Cc1ccc(-c2cc3c(N4CCN(c5ncc(Cc6ccccc6)cn5)CC4)ncnn3c2)cc1` [Compound 16]: the IC50 on D816V KIT was 1.01 to 10 nM; in assay [1] it was 100 to 1000 nM.

Turning to `CCn1cc(-c2cc3c(N4CCN(c5ncc([C@@](C)(O)c6ccc(F)cc6)cn5)CC4)ncnn3c2)cn1` [Compound 75], the IC50 at D816V KIT is < 1 nM; in assay [1], < 50 nM.

Take `Cn1cc(-c2cc3c(N4CCN(c5ncc([C@H](O)c6ccc(F)cc6)cn5)CC4)ncnn3c2)cn1` [Compound 32]: the IC50 at D816V KIT was 1.01 to 10 nM; in assay [1] it was < 50 nM.

In the case of `Cn1cc(-c2cc3c(N4CCN(c5ncc([C@](C)(N)c6c(F)cc(F)cc6F)cn5)CC4)ncnn3c2)cn1` [Compound 113], the IC50 at D816V KIT was < 1 nM; in assay [1] it was < 50 nM.

On to `Cn1cc(-c2cc3c(N4CCN(c5ncc([C@@H](CO)c6ccc(F)cc6)cn5)CC4)ncnn3c2)cn1` [Compound 49], for which the IC50 on D816V KIT was < 1 nM; in assay [1], < 50 nM.

On to `Cn1cc(-c2cc3c(N4CCN(c5ncc(S(=O)(=O)c6ccc(F)cc6)cn5)CC4)ncnn3c2)cn1` [Compound 99], for which the values for the IC50 (at D816V KIT; in assay [1]) were 10 to 100 nM and 1000 to 10000 nM, respectively.

In the case of `Cn1cc(-c2cn3ncnc(N4CCN(c5ncc([C@@](C)(O)c6ccc(F)cc6)cn5)CC4)c3c2F)cn1` [Compound 90], the IC50 on D816V KIT was > 100 nM; in assay [1] it was 1000 to 10000 nM.

For the compound `Cc1ccc(-c2cc3c(N4CCN(c5ncc([C@@](C)(O)c6ccc(F)cc6)cn5)CC4)ncnn3c2)cc1` [Compound 59], the IC50 at D816V KIT was 10 to 100 nM; in assay [1], 100 to 1000 nM.

Turning to `Cn1cc(-c2cc3c(N4CCN(c5ncc(Oc6ccc(F)cc6)cn5)CC4)ncnn3c2)cn1` [Compound 15], the IC50 was in the range of 10 to 100 nM on D816V KIT and 100 to 1000 nM in assay [1].

Consider `Cn1cc(-c2cc3c(N4CCN(c5ncc([C@](C)(O)c6ccc(F)cc6Cl)cn5)CC4)ncnn3c2)cn1` [Compound 109], for which the IC50 on D816V KIT is 10 to 100 nM; in assay [1], 100 to 1000 nM.

`Cn1cc(-c2cc3c(N4CCN(c5ncc([C@@](O)(CF)c6ccc(F)cc6)cn5)CC4)ncnn3c2)cn1` [Compound 95]: the IC50 is < 1 nM on D816V KIT and 50 to 100 nM in assay [1].

`CC[C@@](O)(c1ccc(F)cc1)c1cnc(N2CCN(c3ncnn4cc(-c5cnn(C)c5)cc34)CC2)nc1` [Compound 70]: the IC50 was 1.01 to 10 nM on D816V KIT and < 50 nM in assay [1].

Consider `Cc1nn(C)cc1-c1cc2c(N3CCN(c4ncc([C@](C)(O)c5ccc(F)cc5)cn4)CC3)ncnn2c1` (single isomer, unassigned) [Compound 71], for which the IC50 at D816V KIT lay in the range of 1.01 to 10 nM; in assay [1], 50 to 100 nM.

For the compound `Cc1nn(C)cc1-c1cc2c(N3CCN(c4ncc([C@@](C)(O)c5ccc(F)cc5)cn4)CC3)ncnn2c1` (single isomer, unassigned) [Compound 72], the IC50 at D816V KIT was < 1 nM; in assay [1], < 50 nM.

Consider `Cn1cc(-c2cc3c(N4CCN(c5ccc(C(O)c6ccccc6)cn5)CC4)ncnn3c2)cn1` (stereo not shown) [Compound 11], for which the results for the IC50 (on D816V KIT; in assay [1]) were 1.01 to 10 nM and 100 to 1000 nM, respectively.

As for `Cc1ccc(-c2cc3c(N4CCN(c5ncc([C@@](C)(O)c6ccc(F)cc6)cn5)CC4)ncnn3c2)cn1` [Compound 60], the IC50 was 1.01 to 10 nM on D816V KIT and < 50 nM in assay [1].

With `Cn1cc(-c2cc3c(N4CCN(c5ncc([C@](C)(O)c6c(F)cccc6F)cn5)CC4)ncnn3c2)cn1` [Compound 91], the results for the IC50 (at D816V KIT; in assay [1]) were < 1 nM and 50 to 100 nM, respectively.
